Measured values from patent US20250145606A1 (Arcus Biosciences, Inc., priority 2023, published 2025).

Columns and labels:
PDGFRβ = PDGFRβ (Homo sapiens (Human), UniProt P09619); experiment: Inhibition of PDGFRβ kinase activity (HTRF KinEASE-TK); conditions: biochemical, HTRF KinEASE-TK
Outline: (§1)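 Recombinant kinases (2 nM CSF1R and c-Kit, 10 nM PDGFRα/β, 2× working) preincubated 1 h with compound in 50 mM HEPES pH 7.4, 5 mM MgCl2 (c-Kit) or 10 mM (others), 2 mM MnCl2; 2× ATP: c-Kit 16 μM, PDGFRα 1 μM, PDGFRβ 40 μM, CSF1R 20 μM. 120 min reaction at rt; TR-FRET 665/620 nm; IC50 by 4-parameter fit.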

CSF1R = CSF1R (Homo sapiens (Human), UniProt P07333); experiment: Inhibition of CSF1R kinase activity (HTRF KinEASE-TK); conditions: biochemical, HTRF KinEASE-TK
CSF1R, sequence (P07333 20-972): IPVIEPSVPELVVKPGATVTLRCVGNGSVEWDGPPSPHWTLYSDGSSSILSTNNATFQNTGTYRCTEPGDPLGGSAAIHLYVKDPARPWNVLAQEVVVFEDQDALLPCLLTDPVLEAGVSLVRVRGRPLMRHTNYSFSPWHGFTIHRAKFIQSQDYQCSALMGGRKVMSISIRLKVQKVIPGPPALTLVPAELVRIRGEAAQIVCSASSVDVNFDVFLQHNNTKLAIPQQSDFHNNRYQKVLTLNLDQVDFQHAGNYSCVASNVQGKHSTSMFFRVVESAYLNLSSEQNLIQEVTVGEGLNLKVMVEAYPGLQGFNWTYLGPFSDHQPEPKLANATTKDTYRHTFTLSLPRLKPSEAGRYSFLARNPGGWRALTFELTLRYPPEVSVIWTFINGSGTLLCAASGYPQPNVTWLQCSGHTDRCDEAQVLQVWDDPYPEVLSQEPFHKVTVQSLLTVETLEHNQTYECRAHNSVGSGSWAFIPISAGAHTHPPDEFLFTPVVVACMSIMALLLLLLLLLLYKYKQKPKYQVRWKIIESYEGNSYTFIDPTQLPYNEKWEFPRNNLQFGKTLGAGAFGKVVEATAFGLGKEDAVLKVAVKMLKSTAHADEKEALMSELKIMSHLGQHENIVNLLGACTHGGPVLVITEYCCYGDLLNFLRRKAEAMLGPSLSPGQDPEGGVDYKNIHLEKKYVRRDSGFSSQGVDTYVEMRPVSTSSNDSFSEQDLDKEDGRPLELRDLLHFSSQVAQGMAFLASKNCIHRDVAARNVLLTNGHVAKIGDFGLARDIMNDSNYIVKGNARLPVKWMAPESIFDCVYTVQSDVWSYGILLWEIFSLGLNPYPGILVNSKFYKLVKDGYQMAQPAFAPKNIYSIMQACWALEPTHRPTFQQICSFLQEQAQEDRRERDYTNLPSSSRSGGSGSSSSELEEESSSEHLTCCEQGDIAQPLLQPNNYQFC
Outline: as §1

c-Kit = c-Kit (Homo sapiens (Human), UniProt P10721); experiment: Inhibition of c-Kit kinase activity (HTRF KinEASE-TK); format: biochemical; conditions: biochemical, HTRF KinEASE-TK
c-Kit, sequence (P10721 26-976): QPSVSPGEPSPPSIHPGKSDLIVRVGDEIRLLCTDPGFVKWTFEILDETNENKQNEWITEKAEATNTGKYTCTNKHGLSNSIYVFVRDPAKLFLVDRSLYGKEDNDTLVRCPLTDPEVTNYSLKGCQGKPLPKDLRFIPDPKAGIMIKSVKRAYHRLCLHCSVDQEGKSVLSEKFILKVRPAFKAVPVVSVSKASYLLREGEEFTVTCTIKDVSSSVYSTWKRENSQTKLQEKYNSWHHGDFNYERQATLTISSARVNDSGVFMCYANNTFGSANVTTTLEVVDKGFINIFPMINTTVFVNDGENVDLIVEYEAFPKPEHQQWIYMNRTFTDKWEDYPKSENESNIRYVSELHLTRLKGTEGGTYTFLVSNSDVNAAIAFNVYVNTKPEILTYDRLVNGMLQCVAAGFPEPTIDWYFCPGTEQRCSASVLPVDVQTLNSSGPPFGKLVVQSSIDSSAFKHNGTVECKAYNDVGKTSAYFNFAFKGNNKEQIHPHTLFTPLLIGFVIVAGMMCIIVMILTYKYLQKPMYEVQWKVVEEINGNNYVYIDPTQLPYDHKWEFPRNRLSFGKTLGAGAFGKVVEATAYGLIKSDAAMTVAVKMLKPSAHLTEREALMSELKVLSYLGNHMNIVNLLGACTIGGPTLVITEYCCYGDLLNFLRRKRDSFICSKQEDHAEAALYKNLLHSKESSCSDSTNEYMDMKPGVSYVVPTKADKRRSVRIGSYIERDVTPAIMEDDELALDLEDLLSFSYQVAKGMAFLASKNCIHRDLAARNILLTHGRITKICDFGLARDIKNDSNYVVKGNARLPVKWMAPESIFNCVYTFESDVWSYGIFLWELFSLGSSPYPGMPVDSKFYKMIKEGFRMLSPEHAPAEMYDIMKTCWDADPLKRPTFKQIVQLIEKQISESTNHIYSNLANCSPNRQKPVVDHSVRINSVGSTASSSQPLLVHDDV
Outline: as §1

[1] = test system: Sprague Dawley rat hepatocytes; experiment: Bioactivation assessment in rat hepatocytes; format: in vitro ADME; conditions: 5 μM, 4 hours
Description: (§2) Bioactivation Assessment Procedure
(§3) Pooled male Sprague Dawley rat (BioIVT), male beagle dog (BioIVT), male cynomolgus monkey (BioIVT), and a 50-donor pool of cryopreserved human hepatocytes (BioIVT) was thawed in pre-warmed 37° C. InVitroGro™ HT media (BioIVT), centrifuged, and resuspended in the InVitroGro™ HI media (BioIVT). The number of viable cells was determined by the Trypan blue exclusion method. The cells were diluted to a concentration of two million viable cells per milliliter (viability >80%) and seeded into round-bottom 96-well plates. The test articles were dissolved in DMSO and further diluted in 50% CH3CN and InVitroGro™ HI media with final concentrations of 0.05% DMSO and 0.5% CH3CN in the incubation mixture. Incubation was performed at a final concentration of one million cells per milliliter and 5 μM test compounds with continuous shaking at 1100 rpm in a 37° C., 5/95% CO2/air incubator with 100% relative humidity. After 4 hours, the samples were quenched by addition of 3 volumes of CH3CN, vortexed for 15 minutes, and centrifuged at 4200 rpm for 15 minutes at 10° C. (Sorvall Legend XTR centrifuge, Thermo Scientific, Langenselbold, Germany). 80 μL of the resulting supernatant was transferred into a new plate and mixed with 160 μL water followed by liquid chromatography-high resolution mass spectrometry (LC-HRMS) analysis.
(§4) Structural assignments of metabolites were determined through mass spectral analysis. The level of bioactivation was estimated based on the relative peak area of bioactivation products to all identified metabolites. The following equation was used: […]
(§5) Bioactivation products included glutathione conjugates, imine methides, quinones, diols, and other relevant metabolites.

beagle dog hepatocytes = experiment: Bioactivation assessment in dog hepatocytes; format: in vitro ADME; conditions: 5 μM, 4 hours
Description: as §2, §3, §4, §5

PDGFRα = PDGFRα (Homo sapiens (Human), UniProt P16234); experiment: Inhibition of PDGFRα kinase activity (HTRF KinEASE-TK); conditions: biochemical, HTRF KinEASE-TK
PDGFRα, sequence (P16234 24-1089): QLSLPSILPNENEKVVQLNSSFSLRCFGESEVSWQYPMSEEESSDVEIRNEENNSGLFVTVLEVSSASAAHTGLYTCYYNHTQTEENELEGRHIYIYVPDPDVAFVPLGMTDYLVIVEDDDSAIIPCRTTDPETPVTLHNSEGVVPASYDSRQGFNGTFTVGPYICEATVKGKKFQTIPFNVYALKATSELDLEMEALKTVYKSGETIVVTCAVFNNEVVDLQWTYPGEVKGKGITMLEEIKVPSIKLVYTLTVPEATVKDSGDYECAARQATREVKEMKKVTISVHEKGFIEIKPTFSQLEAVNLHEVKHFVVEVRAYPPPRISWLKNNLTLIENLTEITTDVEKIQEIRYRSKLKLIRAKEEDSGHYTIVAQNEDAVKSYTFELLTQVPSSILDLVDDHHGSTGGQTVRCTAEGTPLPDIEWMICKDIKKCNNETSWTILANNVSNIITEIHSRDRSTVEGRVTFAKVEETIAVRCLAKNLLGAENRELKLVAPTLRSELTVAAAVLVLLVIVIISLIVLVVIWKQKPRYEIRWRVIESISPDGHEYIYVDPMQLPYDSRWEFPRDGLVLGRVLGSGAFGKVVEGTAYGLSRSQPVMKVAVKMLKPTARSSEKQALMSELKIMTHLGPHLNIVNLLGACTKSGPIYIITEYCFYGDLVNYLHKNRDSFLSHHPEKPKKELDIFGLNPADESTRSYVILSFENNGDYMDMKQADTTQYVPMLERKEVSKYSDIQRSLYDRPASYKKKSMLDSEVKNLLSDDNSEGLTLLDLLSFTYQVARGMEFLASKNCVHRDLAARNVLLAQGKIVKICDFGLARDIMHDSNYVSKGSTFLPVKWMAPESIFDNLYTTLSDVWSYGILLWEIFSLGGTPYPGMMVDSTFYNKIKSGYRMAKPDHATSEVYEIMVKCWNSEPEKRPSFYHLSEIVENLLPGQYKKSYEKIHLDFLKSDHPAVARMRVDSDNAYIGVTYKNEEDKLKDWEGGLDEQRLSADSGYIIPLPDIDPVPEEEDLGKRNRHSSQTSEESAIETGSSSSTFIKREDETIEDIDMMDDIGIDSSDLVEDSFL
Outline: as §1

human hepatocytes = experiment: Bioactivation assessment in human hepatocytes; format: in vitro ADME; conditions: 5 μM, 4 hours
Description: as §2, §3, §4, §5

[2] = test system: cynomolgus monkey hepatocytes; experiment: Bioactivation assessment in monkey hepatocytes; format: in vitro ADME; conditions: 5 μM, 4 hours
Description: as §2, §3, §4, §5

FLT3 = FLT3 (Homo sapiens (Human), UniProt P36888); experiment: Inhibition of FLT3 kinase activity (HTRF KinEASE-TK); format: biochemical; conditions: biochemical, HTRF KinEASE-TK
FLT3, sequence (P36888 27-993): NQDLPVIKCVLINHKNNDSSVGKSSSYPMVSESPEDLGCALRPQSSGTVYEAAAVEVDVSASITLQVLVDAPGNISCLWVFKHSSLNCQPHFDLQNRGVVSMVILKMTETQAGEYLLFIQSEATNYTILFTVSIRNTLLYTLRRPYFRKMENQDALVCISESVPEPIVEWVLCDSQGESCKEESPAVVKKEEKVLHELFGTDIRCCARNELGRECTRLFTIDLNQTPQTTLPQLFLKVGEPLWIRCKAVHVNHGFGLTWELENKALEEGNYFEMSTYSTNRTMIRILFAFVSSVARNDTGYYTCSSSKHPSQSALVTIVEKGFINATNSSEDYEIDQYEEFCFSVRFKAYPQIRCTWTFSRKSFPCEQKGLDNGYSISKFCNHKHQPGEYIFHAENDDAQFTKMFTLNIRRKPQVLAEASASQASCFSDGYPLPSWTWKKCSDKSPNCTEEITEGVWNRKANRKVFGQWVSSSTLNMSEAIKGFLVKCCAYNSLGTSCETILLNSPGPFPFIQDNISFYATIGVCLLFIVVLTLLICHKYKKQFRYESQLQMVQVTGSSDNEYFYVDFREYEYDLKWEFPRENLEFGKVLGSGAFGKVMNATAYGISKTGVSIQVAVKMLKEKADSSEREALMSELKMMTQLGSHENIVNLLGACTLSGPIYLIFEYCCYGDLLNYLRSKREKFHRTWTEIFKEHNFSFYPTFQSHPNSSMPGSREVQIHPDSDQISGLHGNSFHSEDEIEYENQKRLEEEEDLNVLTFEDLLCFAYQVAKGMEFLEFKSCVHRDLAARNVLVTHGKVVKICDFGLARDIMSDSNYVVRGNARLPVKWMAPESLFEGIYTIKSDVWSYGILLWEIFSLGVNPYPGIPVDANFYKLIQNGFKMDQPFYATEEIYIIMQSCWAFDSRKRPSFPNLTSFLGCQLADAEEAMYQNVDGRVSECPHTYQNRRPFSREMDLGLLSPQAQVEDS
Outline: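 FLT3 tyrosine kinase activity was measured with the HTRF KinEASE-TK kit by following phosphorylation of a biotinylated TK peptide. After the 45 min reaction, 10 μL of detection mix was added: 0.2 μM (2×) Streptavidin-XL665 and 2 μM (2×) TK-Antibody-Cryptate in detection buffer. After 60 min, TR-FRET was read on an Envision as the 665 nm/620 nm emission ratio with 320 nm excitation.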

[3] = test system: Phospho-KIT (Y703) in M07e cells; experiment: Phospho-KIT (Y703) cellular assay in M07e cells; format: cell-based; conditions: M-07e; read-out: M07e Cell IC50
Outline: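 Serum-starved M07e cells preincubated 50 min at 37° C with 11-point half-log compound titration, then stimulated 10 min with SCF at 90.9 ng/mL final. Fixed, permeabilized cells stained for phospho-KIT Y703 and read by flow cytometry (live-gated geometric mean); IC50 by 4-parameter fit normalized to DMSO and positive control.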

PDGFRβ, sequence (P09619 33-1106): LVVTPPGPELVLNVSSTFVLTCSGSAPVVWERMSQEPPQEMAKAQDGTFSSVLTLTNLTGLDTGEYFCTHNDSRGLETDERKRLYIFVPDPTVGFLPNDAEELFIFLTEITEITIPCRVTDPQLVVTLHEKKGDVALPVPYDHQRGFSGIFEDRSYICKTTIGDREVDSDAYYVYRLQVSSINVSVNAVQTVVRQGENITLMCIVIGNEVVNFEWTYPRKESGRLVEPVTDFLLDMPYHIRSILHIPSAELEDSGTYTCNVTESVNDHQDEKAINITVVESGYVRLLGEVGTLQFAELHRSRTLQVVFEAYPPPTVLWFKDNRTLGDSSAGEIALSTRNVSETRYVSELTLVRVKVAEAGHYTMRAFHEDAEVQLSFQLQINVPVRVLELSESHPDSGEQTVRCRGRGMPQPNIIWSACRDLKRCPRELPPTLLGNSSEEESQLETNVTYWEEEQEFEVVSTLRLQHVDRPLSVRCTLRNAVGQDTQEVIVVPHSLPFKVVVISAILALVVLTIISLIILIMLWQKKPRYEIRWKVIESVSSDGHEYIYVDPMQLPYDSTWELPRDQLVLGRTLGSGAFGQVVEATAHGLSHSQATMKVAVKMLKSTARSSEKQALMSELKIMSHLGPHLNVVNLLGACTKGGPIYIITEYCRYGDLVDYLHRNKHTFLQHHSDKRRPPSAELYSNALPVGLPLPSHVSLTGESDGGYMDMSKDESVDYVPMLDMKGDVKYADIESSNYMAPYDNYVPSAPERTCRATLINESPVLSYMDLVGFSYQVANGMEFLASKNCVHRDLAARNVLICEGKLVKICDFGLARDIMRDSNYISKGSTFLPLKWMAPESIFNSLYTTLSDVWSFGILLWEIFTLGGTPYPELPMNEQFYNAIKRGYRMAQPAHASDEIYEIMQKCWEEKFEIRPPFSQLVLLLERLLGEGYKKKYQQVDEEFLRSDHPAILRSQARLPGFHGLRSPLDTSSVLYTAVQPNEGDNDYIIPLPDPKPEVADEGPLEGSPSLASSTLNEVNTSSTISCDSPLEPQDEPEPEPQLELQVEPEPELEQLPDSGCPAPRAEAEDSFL

SMILES	IC50 (PDGFRβ) [µM]	IC50 (CSF1R) [µM]	IC50 (c-Kit) [µM]	Percent of total metabolism via bioactivation, Rat hepatocytes [1] [%]	Percent of total metabolism via bioactivation, Dog hepatocytes (beagle dog hepatocytes) [%]	IC50 (PDGFRα) [µM]	Percent of total metabolism via bioactivation, Human hepatocytes (human hepatocytes) [%]	Percent of total metabolism via bioactivation, Monkey hepatocytes [2] [%]	IC50 (FLT3) [µM]	IC50 [3] [µM]
Cc1ncc(C(=O)Nc2cc(C(=O)Nc3ccc(CC(F)(F)F)cn3)c(F)cc2F)s1 [Example 242, N-[2,4-difluoro-5-[[5-(2,2,2-trifluoroethyl)pyridin-2-yl]carbamoyl]phenyl]-2-methyl-1,3-thiazole-5-carboxamide]	> 1	> 1	0.1 to 1	88	44	> 1	<1			
Cc1ccc(-c2noc([C@H]3C[C@@H]3F)n2)cc1NC(=O)c1cnc2ccccn12 [labuxtinib, reference compound]				45	17		24	31		
Cc1ncc(C(=O)Nc2cc(C(=O)Nc3ccc(CC(F)F)cn3)c(F)cc2C)s1 [Example 45, N-[5-[[5-(2,2-difluoroethyl)pyridin-2-yl]carbamoyl]-4-fluoro-2-methylphenyl]-2-methyl-1,3-thiazole-5-carboxamide]	> 1	> 1	< 0.1			> 1			> 1	< 0.1
